Key:
Format in all cases: in vivo, human
Details in all cases: observed case
IL-23 = assay: Biomarker study in RA subjects: serum IL-23, Luminex 18-Plex
Experimental: (§1) Double-blind, placebo-controlled add on study in subjects with moderately to severely active RA who have an inadequate response to MTX (oral or parenteral).
(§2) 595 subjects randomized to one of 6 dose regimens of Compound 1 (dosed as a [Compound 1:HCl:3H2O]) (3 dose levels administered either once or twice daily) or placebo on top of each subject's stable dose of MTX.
(§3) Compound 1 (dosed as a [Compound 1:HCl:3H2O]) is dosed for twelve weeks once daily (q.d.) (50 mg, 100 mg or 200 mg) or twice daily (b.i.d.) (25 mg, 50 mg or 100 mg); or placebo.
(§4) 18 parameters from human serum samples (GM-CSF, IFNγ, IL-1β, IL-2, IL-4, IL-5, IL-6, IL-7, IL-8, IL-10, IL-12 (p70), IL-13, IL-17A, IL-21, IL-23, MIP-1α, MIP-1β and TNF-α) are analyzed on a Luminex Plateform (BioPlex® L200) using a Luminex 18-Plex Kit (Millipore: HSTCMAG-28SK).
(§5) Coupled beads react with the sample containing the biomarker of interest. […] Phycoerythrin (PE) serves as a fluorescent indicator.
(§6) The concentration of bead bound analyte is proportional to the MFI (Median Fluorescent Intensity) and back-calculated from interpolation with the calibration curve fitted with a 4 or 5 parameters logistic (4PL or 5PL) regression model selected during method pre-validation.
(§7) Treatment effect was assessed using an ANCOVA model on the changes from baseline, with factors: treatment, baseline value of the PD marker, geographical region and previous use of biologics.

IL-4 = assay: Biomarker study in RA subjects: serum IL-4, Luminex 18-Plex
Experimental: as §1, §2, §3, §4, §5, §6, §7

TNF-α = assay: Biomarker study in RA subjects: serum TNF-α, Luminex 18-Plex
Experimental: as §1, §2, §3, §4, §5, §6, §7

MIP-1β = assay: Biomarker study in RA subjects: serum MIP-1β, Luminex 18-Plex
Experimental: as §1, §2, §3, §4, §5, §6, §7

IL-13 = assay: Biomarker study in RA subjects: serum IL-13, Luminex 18-Plex
Experimental: as §1, §2, §3, §4, §5, §6, §7

IL-6 = assay: Biomarker study in RA subjects: serum IL-6, Luminex 18-Plex
Experimental: as §1, §2, §3, §4, §5, §6, §7

IL-21 = assay: Biomarker study in RA subjects: serum IL-21, Luminex 18-Plex
Experimental: as §1, §2, §3, §4, §5, §6, §7

[1] = 50 mg bid, Week 4, N = 73, RA subjects on MTX
[2] = 50 mg bid, Week 12, N = 73, RA subjects on MTX
[3] = 100 mg bid, Week 4, N = 79, RA subjects on MTX
[4] = 100 mg bid, Week 12, N = 79, RA subjects on MTX
[5] = 100 mg qd, Week 4, N = 68, RA subjects on MTX
[6] = 100 mg qd, Week 12, N = 68, RA subjects on MTX
[7] = 200 mg qd, Week 4, N = 75, RA subjects on MTX
[8] = 200 mg qd, Week 12, N = 75, RA subjects on MTX

## O=C(Nc1nc2cccc(-c3ccc(CN4CCS(=O)(=O)CC4)cc3)n2n1)C1CC1 [Compound 1, cyclopropanecarboxylic acid {5-[4-(1,1-dioxo-thiomorpholin-4-ylmethyl)-phenyl]-[1,2,4]triazolo[1,5-a]pyridin-2yl}-amide]
IL-23; [1]
  IL-23 Mean change from baseline at Week 4: -772.1 pg/mL
IL-23; [2]
  IL-23 Mean change from baseline at Week 12: -888.7 pg/mL
IL-23; [3]
  IL-23 Mean change from baseline at Week 4: -273.6 pg/mL
IL-23; [4]
  IL-23 Mean change from baseline at Week 12: -831.6 pg/mL
IL-23; [5]
  IL-23 Mean change from baseline at Week 4: 38.3 pg/mL
IL-23; [6]
  IL-23 Mean change from baseline at Week 12: -337.9 pg/mL
IL-23; [7]
  IL-23 Mean change from baseline at Week 4: -435.8 pg/mL
IL-23; [8]
  IL-23 Mean change from baseline at Week 12: -949.7 pg/mL
IL-4; [1]
  IL-4 Mean change from baseline at Week 4: -0.3 pg/mL
IL-4; [2]
  IL-4 Mean change from baseline at Week 12: -2.1 pg/mL
IL-4; [3]
  IL-4 Mean change from baseline at Week 4: -2.7 pg/mL
IL-4; [4]
  IL-4 Mean change from baseline at Week 12: -2.7 pg/mL
IL-4; [5]
  IL-4 Mean change from baseline at Week 4: 0.8 pg/mL
IL-4; [6]
  IL-4 Mean change from baseline at Week 12: -1.6 pg/mL
IL-4; [7]
  IL-4 Mean change from baseline at Week 4: 0.2 pg/mL
IL-4; [8]
  IL-4 Mean change from baseline at Week 12: -2.5 pg/mL
TNF-α; [1]
  TNFα Mean change from baseline at Week 4: -0.2 pg/mL
TNF-α; [2]
  TNFα Mean change from baseline at Week 12: 0.3 pg/mL
TNF-α; [3]
  TNFα Mean change from baseline at Week 4: -1.7 pg/mL
TNF-α; [4]
  TNFα Mean change from baseline at Week 12: -2.2 pg/mL
TNF-α; [5]
  TNFα Mean change from baseline at Week 4: 1.0 pg/mL
TNF-α; [6]
  TNFα Mean change from baseline at Week 12: -1.0 pg/mL
TNF-α; [7]
  TNFα Mean change from baseline at Week 4: 0.0 pg/mL
TNF-α; [8]
  TNFα Mean change from baseline at Week 12: -1.2 pg/mL
MIP-1β; [1]
  MIP-1β Mean change from baseline at Week 4: 0.4 pg/mL
MIP-1β; [2]
  MIP-1β Mean change from baseline at Week 12: -1.1 pg/mL
MIP-1β; [3]
  MIP-1β Mean change from baseline at Week 4: -2.1 pg/mL
MIP-1β; [4]
  MIP-1β Mean change from baseline at Week 12: -1.3 pg/mL
MIP-1β; [5]
  MIP-1β Mean change from baseline at Week 4: -0.7 pg/mL
MIP-1β; [6]
  MIP-1β Mean change from baseline at Week 12: -1.7 pg/mL
MIP-1β; [7]
  MIP-1β Mean change from baseline at Week 4: -1.6 pg/mL
MIP-1β; [8]
  MIP-1β Mean change from baseline at Week 12: -1.5 pg/mL
IL-13; [1]
  IL-13 Mean change from baseline at Week 4: -0.6 pg/mL
IL-13; [2]
  IL-13 Mean change from baseline at Week 12: -1.1 pg/mL
IL-13; [3]
  IL-13 Mean change from baseline at Week 4: -1.5 pg/mL
IL-13; [4]
  IL-13 Mean change from baseline at Week 12: -2.9 pg/mL
IL-13; [5]
  IL-13 Mean change from baseline at Week 4: -0.6 pg/mL
IL-13; [6]
  IL-13 Mean change from baseline at Week 12: -1.5 pg/mL
IL-13; [7]
  IL-13 Mean change from baseline at Week 4: -0.9 pg/mL
IL-13; [8]
  IL-13 Mean change from baseline at Week 12: -2.2 pg/mL
IL-6; [1]
  IL-6 Mean change from baseline at Week 4: -4.2 pg/mL
IL-6; [2]
  IL-6 Mean change from baseline at Week 12: -6.0 pg/mL
IL-6; [3]
  IL-6 Mean change from baseline at Week 4: -11.0 pg/mL
IL-6; [4]
  IL-6 Mean change from baseline at Week 12: -14.1 pg/mL
IL-6; [5]
  IL-6 Mean change from baseline at Week 4: -7.0 pg/mL
IL-6; [6]
  IL-6 Mean change from baseline at Week 12: -8.0 pg/mL
IL-6; [7]
  IL-6 Mean change from baseline at Week 4: -9.6 pg/mL
IL-6; [8]
  IL-6 Mean change from baseline at Week 12: -11.2 pg/mL
IL-21; [1]
  IL-21 Mean change from baseline at Week 4: -0.1 pg/mL
IL-21; [2]
  IL-21 Mean change from baseline at Week 12: -1.6 pg/mL
IL-21; [3]
  IL-21 Mean change from baseline at Week 4: -1.6 pg/mL
IL-21; [4]
  IL-21 Mean change from baseline at Week 12: -2.8 pg/mL
IL-21; [5]
  IL-21 Mean change from baseline at Week 4: -0.3 pg/mL
IL-21; [6]
  IL-21 Mean change from baseline at Week 12: 0.5 pg/mL
IL-21; [7]
  IL-21 Mean change from baseline at Week 4: -1.4 pg/mL
IL-21; [8]
  IL-21 Mean change from baseline at Week 12: -2.3 pg/mL
